A word on the Kd: it is the equilibrium constant for the complex coming apart.

For one assay, the target named is T1, human PD-1 protein (Homo sapiens, UniProt Q15116).
T1 construct: Fc; purchased ACRO Biosystems
Description: PD-1 binding assay with SPR (Biacore T200). Particulars: for kon: association rate, read-out: PD-1 Ka; for Kd: immobilized human PD-1 (Fc Tag). How it is done:
The PD-1/PD-L1 binding affinity of test natural compounds was measured on a SPR Biacore T200 instrument (GE Healthcare; Marlborough, MA, USA). Human PD-L1and PD-1 proteins (both with a Fc Tag) were purchased from ACRO Biosystems (Newark, DE, USA). Carboxymethylated CM 5 SPR chips were purchased from GE Healthcare (Marlborough, MA, USA). The SPR binding channels were set as: Cell-1, blank immobilization; Cell-2, human PD-L1 protein was immobilized by the injection of protein solution (40 μg/mL) in sodium acetate buffer (10 mM; pH 4.5); Cell-3, human PD-1 protein was immobilized by the injection of protein solution (40 μg/mL) in sodium acetate buffer (10 mM; pH 5.0). Approximately, 5500 and 4500 RU of human PD-1 and PD-L1 proteins, respectively, were immobilized on the flow cells with an amine coupling method.
A general note: In SPR one partner is held on a chip, and binding of the other changes the refractive index at the surface.

A further assay deals with T2, human PD-L1 protein (Homo sapiens, UniProt Q9NZQ7).
T2 construct: Fc; purchased ACRO Biosystems
T2 sequence (Q9NZQ7 19-290): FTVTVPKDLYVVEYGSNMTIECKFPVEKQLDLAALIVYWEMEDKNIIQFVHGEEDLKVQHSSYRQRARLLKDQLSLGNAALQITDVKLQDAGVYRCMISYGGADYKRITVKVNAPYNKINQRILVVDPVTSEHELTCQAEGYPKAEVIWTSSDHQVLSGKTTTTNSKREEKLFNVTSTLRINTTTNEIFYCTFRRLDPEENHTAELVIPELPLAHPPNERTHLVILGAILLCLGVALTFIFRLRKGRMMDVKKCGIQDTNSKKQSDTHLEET
As to the kind of experiment: PD-L1 binding assay with SPR (Biacore T200). As to conditions: for kon: association rate, read-out: PD-L1 Ka; for Kd: immobilized human PD-L1 (Fc Tag).

In another assay the target is T3, PD-1/PD-L1 interaction (Homo sapiens, UniProt Q9NZQ7).
T3 construct: purchased ACRO Biosystems
T3 sequence (Q9NZQ7 19-238 limits assumed): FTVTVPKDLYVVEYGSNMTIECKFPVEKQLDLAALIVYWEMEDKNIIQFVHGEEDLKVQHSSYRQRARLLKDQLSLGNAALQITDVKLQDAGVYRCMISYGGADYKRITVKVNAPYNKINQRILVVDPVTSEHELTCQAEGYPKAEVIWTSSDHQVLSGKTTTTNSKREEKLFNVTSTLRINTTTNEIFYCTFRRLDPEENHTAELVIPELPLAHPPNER
Description: PD-1/PD-L1 blockade assay (pair ELISA). As to conditions: for blockade effect on the PD-1/PD-L1 interaction (in words): test samples at 10 and 100 μM. The class given is biochemical. On the technique in general: ELISA stands for enzyme-linked immunosorbent assay.

A further assay has as its system PD-1/PD-L1. Set-up: method as in PMID 30068796. As to conditions: homogenous AlphaLISA assay; read-out: IC50 of PD-1/PD-L1 blockade; cited from earlier work. On the technique in general: Bead proximity is the source of the signal in Alpha formats.

“And” between values parts separate entries of the source, which are not always exact repeats. Equal entries are not always repeated.

T1 sequence (Q15116 25-288): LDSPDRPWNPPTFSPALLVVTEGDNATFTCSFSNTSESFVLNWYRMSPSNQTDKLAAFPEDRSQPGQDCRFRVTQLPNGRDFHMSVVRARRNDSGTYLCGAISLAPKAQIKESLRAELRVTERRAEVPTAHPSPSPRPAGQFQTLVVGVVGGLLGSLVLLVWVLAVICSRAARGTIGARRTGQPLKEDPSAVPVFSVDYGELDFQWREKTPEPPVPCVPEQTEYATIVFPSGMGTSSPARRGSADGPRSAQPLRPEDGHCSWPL

With `O=C(OC[C@H]1O[C@@H](OC(=O)c2cc(O)c(O)c(O)c2)[C@H](OC(=O)c2cc(O)c(O)c(O)c2)[C@@H](OC(=O)c2cc(O)c(O)c(O)c2)[C@@H]1OC(=O)c1cc(O)c(O)c(O)c1)c1cc(O)c(O)c(O)c1` [PGG, pentagalloyl glucose], at human PD-1 protein, the kon worked out at 3940 M⁻¹ s⁻¹ and binding was put at a Kd of 27.2 µM. On human PD-L1 protein, the kon is 413 M⁻¹ s⁻¹ and the affinity, expressed as Kd, was 2.23 µM. Also, the “blockade effect on the PD-1/PD-L1 interaction (in words)” value on PD-1/PD-L1 interaction is reported as “not detected”.

As for `O=C1O[C@H]2[C@@H]3OC(=O)c4cc(O)c(O)c(O)c4-c4c(O)c(O)c5oc(=O)c6c(c(O)c(O)c7oc(=O)c4c5c76)-c4c(cc(O)c(O)c4O)C(=O)OC[C@H]3OC(O)[C@@H]2OC(=O)c2cc(O)c(O)c(O)c2-c2c1cc(O)c(O)c2O` (mixture of isomers) [punicalagin], the “binding capacity to PD-1/PD-L1 proteins (in words)” value on human PD-L1 protein (protein not specified further (PD-1/PD-L1 proteins), earlier observation of the authors) was “detectable binding capacity”. For the same molecule, at PD-1/PD-L1 interaction (earlier observation of the authors, concentration not given), the “activity in the PD-1/PD-L1 blockade assay (in words)” value is given as “not active”.

Consider `O=c1oc2cc(O)ccc2c2ccc(O)cc12` [urolithin A], for which the “binding affinity to PD-1 protein (in words)” value at human PD-1 protein was “not detectable”. In addition, on human PD-L1 protein, the “binding affinity to PD-L1 protein (in words)” value is given as “not detectable”. Besides, on PD-1/PD-L1 interaction (compound at 100 μM), the “blockade of the PD-1/PD-L1 interaction” value is reported as 39.7%.

As for `Cc1c(COc2cc(OCc3cccc(C#N)c3)c(CN3C[C@H](O)C[C@@H]3C(=O)O)cc2Cl)cccc1-c1ccc2c(c1)OCCO2` [BMS1166, reference compound], the “blockade of the PD-1/PD-L1 interaction” value on PD-1/PD-L1 interaction (compound at 10 μM) is reported as 99.3%.

`CO[C@H]1/C=C/O[C@@]2(C)Oc3c(C)c(O)c4c(c3C2=O)C2=NC3(CCN(CC(C)C)CC3)NC2=C(NC(=O)/C(C)=C\C=C\[C@H](C)[C@H](O)[C@@H](C)[C@@H](O)[C@@H](C)[C@H](OC(C)=O)[C@@H]1C)C4=O` [Rifabutin, rifabutin, reference compound]: on human PD-1 protein, the “binding affinity to PD-1 protein (in words)” value is “not detectable”. Also, the IC50 with PD-1/PD-L1 is 25 µM. Also, the “binding affinity to PD-L1 protein (in words)” value at human PD-L1 protein is recorded as “not detectable”. Further, the “blockade of the PD-1/PD-L1 interaction” value at PD-1/PD-L1 interaction (compound at 100 μM) was 58.6%.

For `O=c1cc(-c2ccc(O)cc2)oc2cc(O[C@@H]3O[C@H](CO)[C@@H](O)[C@H](O)[C@H]3O)cc(O)c12` [cosmosiin], on human PD-L1 protein, the “selectivity of binding (PD-L1 versus PD-1)” value is “selective binding to the PD-L1 protein”, the kon stood at 785 M⁻¹ s⁻¹, the “koff (dissociation rate constant) to PD-L1” value worked out at 0.00261 s⁻¹ and the Kd came to 3.32 µM. In addition, on PD-1/PD-L1 interaction (compound at 100 μM), the “blockade of the PD-1/PD-L1 interaction” value is 55.8%.

For the molecule `O=c1c(O)c(-c2ccc(O)cc2)oc2cc(O)cc(O)c12` [kaempferol], the “binding affinity to PD-1 protein relative to PD-L1 protein” value on human PD-1 protein (PD-1 stronger than PD-L1) was 100 fold. Also, the kon was found to be 504 M⁻¹ s⁻¹ at human PD-1 protein and 5460 M⁻¹ s⁻¹ on human PD-L1 protein. Besides, the Kd at human PD-1 protein is 0.304 µM and 0.303 µM; on human PD-L1 protein, 33 µM and 32.9 µM. Moreover, the “blockade of the PD-1/PD-L1 interaction” value on PD-1/PD-L1 interaction (compound at 10 μM) was 4.1%; on PD-1/PD-L1 interaction (compound at 100 μM), 63.4%.

`O=C(OC[C@H]1O[C@@H](OC(=O)c2cc(O)c(O)c(OC(=O)c3cc(O)c(O)c(O)c3)c2)[C@H](OC(=O)c2cc(O)c(O)c(OC(=O)c3cc(O)c(O)c(O)c3)c2)[C@@H](OC(=O)c2cc(O)c(O)c(OC(=O)c3cc(O)c(O)c(O)c3)c2)[C@@H]1OC(=O)c1cc(O)c(O)c(OC(=O)c2cc(O)c(O)c(O)c2)c1)c1cc(O)c(O)c(OC(=O)c2cc(O)c(O)c(O)c2)c1` [TA, tannic acid]: the Kd worked out at 1.46 µM at human PD-1 protein and 1.21 µM on human PD-L1 protein. Also, the “blockade of the PD-1/PD-L1 interaction” value at PD-1/PD-L1 interaction (compound at 10 μM) is listed as 11.0%; on PD-1/PD-L1 interaction (compound at 100 μM), 36.9%.

For `Oc1ccc(/C=C/c2cc(O)cc(O)c2)cc1` [resveratrol], on human PD-L1 protein, the “koff (dissociation rate constant) to PD-L1” value came out at 0.06435 s⁻¹ and binding was characterised by a dissociation constant (Kd) of 37.9 µM.

`O=c1oc2c(O)c(O)cc3c(=O)oc4c(O)c(O)cc1c4c23` [EA, ellagic acid]: on human PD-1 protein, the kon amounted to 410 M⁻¹ s⁻¹ and binding was put at a Kd of 1.82 µM. On human PD-L1 protein, this molecule displayed a Kd of 26.2 µM. Also, at PD-1/PD-L1 interaction, the “blockade effect on the PD-1/PD-L1 interaction (in words)” value was “not detected”.
